Assay: Potency code of Table 2 (assay not stated)

Row | Structure (SMILES) | Potency code
1 | NCCCOc1ccc(-c2cc(C(F)(F)F)n[nH]2)c(O)c1-c1ccc(Cl)c(C(F)(F)F)c1 [NUCC-0201646] | + (>40 +)
2 | Oc1c(-c2cc(C(F)(F)F)[nH]n2)ccc(OCc2ccc(Cl)cc2)c1-c1ccc(F)c(C(F)(F)F)c1 [NUCC-0200734] | + (>40 +)
3 | Cn1nc(C(F)(F)F)cc1-c1ccc(OCCCNC(=O)COCCOCCOCCn2cc(COc3cccc4c3C(=O)N(C3CCC(=O)NC3=O)C4=O)nn2)c(-c2cncc(C(F)(F)F)c2)c1O (centres unmarked) [NUCC-0201703] | + (>40 +)
4 | Cn1nc(C(F)(F)F)cc1-c1ccc(OCc2ccc(Cl)cc2)c(-c2ccc(F)c(C(F)(F)F)c2)c1O [NUCC-0200735] | + (>40 +)
5 | Cn1nc(C(F)(F)F)cc1-c1ccc(OCc2ccc(Cl)cc2)c(-c2cccc(C(F)(F)F)c2)c1O [NUCC-0200974] | + (>40 +)
6 | Nc1ccc(-c2cc(C(F)(F)F)[nH]n2)c(O)c1 [NUCC-0200497] | + (>40 +)
7 | Cn1nc(C(F)(F)F)cc1-c1ccc(OCc2ccc(Cl)cc2)cc1CO [NUCC-0200978] | + (>40 +)
8 | COc1ccc(-c2c(-c3ccc(OCc4ccc(Cl)cc4)cc3O)nn(C)c2C(F)(F)F)cc1OC [NUCC-0196311] | + (>40 +)
9 | Cn1nc(C(F)(F)F)cc1-c1ccc(OCc2ccc(Cl)cc2)cc1F [NUCC-0200977] | + (>40 +)
10 | CCCCOc1ccc(-c2cc(C(F)(F)F)n[nH]2)c(O)c1-c1cc(C(F)(F)F)cc(C(F)(F)F)c1 [NUCC-0201031] | + (>40 +)
11 | CCc1[nH]nc(-c2ccc(OCc3ccc(Cl)cc3)cc2O)c1-c1ccccc1 [NUCC-0198301] | + (>40 +)
12 | CN/N=C(/C)c1ccc(-c2c(OCc3ccc(Cl)cc3)ccc(-c3cc(C(F)(F)F)n(C)n3)c2O)cc1 [NUCC-0198397] | + (>40 +)
13 | C#CCC(N=[N+]=[N-])C(=O)NCCCOc1ccc(-c2cc(C(F)(F)F)nn2C)c(O)c1-c1ccc(Cl)c(C(F)(F)F)c1 (centres unmarked) [NUCC-0201695] | + (>40 +)
14 | Oc1c(-c2cc(C(F)(F)F)[nH]n2)ccc(OCc2ccc(Cl)cc2)c1-c1ccc(C(F)(F)F)cc1Cl [NUCC-0200737] | + (>40 +)
15 | Cc1cc(C)cc(-c2c[nH]nc2-c2ccc(OCc3ccc(Cl)cc3)cc2O)c1 [NUCC-0198352] | + (>40 +)
16 | Cc1nn(C)c(-c2ccc(OCc3ccc(Cl)cc3)cc2O)c1-c1ccccc1 [NUCC-0198299] | + (>40 +)
17 | Cn1nc(C(F)(F)F)cc1-c1ccc(OCc2ccc(Cl)cc2)c(-c2cncc(C(F)(F)F)c2)c1O [NUCC-0201630] | + (>40 +)
18 | Cn1nc(-c2ccc(Nc3ccc(Cl)cc3)cc2O)cc1C(F)(F)F [NUCC-0200492] | +++ (10-30 +++)
19 | Cc1[nH]nc(-c2ccc(OCc3cnn(C)c3)cc2O)c1Oc1ccccc1 [NUCC-0176249] | + (>40 +)
20 | CC(C)CCOc1ccc(-c2cc(C(F)(F)F)n[nH]2)c(O)c1-c1cncc(C#N)c1 [NUCC-0201195] | ++++ (<10 ++++)
21 | CCCOc1ccc(-c2cc(C(F)(F)F)n[nH]2)c(O)c1-c1cc(C(F)(F)F)cc(C(F)(F)F)c1 [NUCC-0201197] | +++ (10-30 +++)
22 | Cn1nc(-c2ccc(OCCN3CCOCC3)cc2O)c(Oc2ccccc2Cl)c1C(F)(F)F [NUCC-0196341] | + (>40 +)

Row | Structure (SMILES) | Potency code
23 | C#CCC(N=[N+]=[N-])C(=O)Nc1ccc(COc2ccc(-c3cc(C(F)(F)F)n(C)n3)c(O)c2-c2cncc(C(F)(F)F)c2)cc1 (centres unmarked) [NUCC-0201699] | + (>40 +)
24 | Cn1nc(-c2ccc(OCc3ccc([N+](=O)[O-])cc3)c(-c3cncc(C(F)(F)F)c3)c2O)cc1C(F)(F)F [NUCC-0201654] | + (>40 +)
25 | CCc1ccc(Oc2c(-c3ccc(OCc4ccc(OC)cc4)cc3O)n[nH]c2C(F)(F)F)cc1 [NUCC-0196359] | + (>40 +)
26 | Cc1ccc(-c2c(C(F)(F)F)n[nH]c2-c2cc(OCc3ccc(Cl)cc3)ccc2O)cc1 [NUCC-0200572] | + (>40 +)
27 | Cn1nc(-c2ccc(OCCCNC(=O)OC(C)(C)C)c(-c3ccc(Cl)c(C(F)(F)F)c3)c2O)cc1C(F)(F)F [NUCC-0201658] | ++ (30-40 ++)
28 | Oc1cccc(COc2ccc(Cl)cc2)c1-c1cc(C(F)(F)F)n[nH]1 [NUCC-0200570] | + (>40 +)
29 | NC(=O)c1cccc(-c2c(OCc3ccc(Cl)cc3)ccc(-c3cc(C(F)(F)F)[nH]n3)c2O)c1 [NUCC-0198401] | + (>40 +)
30 | COc1cccc(-c2cn(C)nc2-c2ccc(OCc3ccc(Cl)cc3)cc2O)c1 [NUCC-0198326] | + (>40 +)
31 | Cn1nc(C(F)(F)F)cc1-c1ccc(NCc2ccc(Cl)cc2)cn1 [NUCC-0200691] | + (>40 +)
32 | CCc1ccc(Oc2c(-c3ccc(OCc4cccc(Cl)c4)cc3O)nn(C)c2C(F)(F)F)cc1 [NUCC-0196296] | + (>40 +)
33 | Cc1cc(C)cc(-c2cn(C)nc2-c2ccc(OCc3ccc(Cl)cc3)cc2O)c1 [NUCC-0198353] | + (>40 +)
34 | C#CCOc1ccc(COc2ccc(-c3cc(C(F)(F)F)n[nH]3)c(O)c2-c2cc(C(F)(F)F)cc(C(F)(F)F)c2)cc1 [NUCC-0201219] | ++++ (<10 ++++)
35 | Cn1nc(C(F)(F)F)cc1-c1ccc(OCc2ccc(F)cc2)c(-c2cc(C(F)(F)F)cc(C(F)(F)F)c2)c1O [NUCC-0201034] | + (>40 +)
36 | CC(C)CCOc1ccc(-c2cc(C(F)(F)F)[nH]n2)c(O)c1-c1ccc(Cl)c(C(F)(F)F)c1 [NUCC-0201634] | ++ (30-40 ++)
37 | Cc1ccc(C)c(Oc2cn(C)nc2-c2ccc(OCCN3CCCCC3)cc2O)c1 [NUCC-0196299] | + (>40 +)
38 | CCCCCCOc1ccc(-c2cc(C(F)(F)F)n(C)n2)c(O)c1-c1cncc(C#N)c1 [NUCC-0201212] | + (>40 +)
39 | CCCCCCOc1ccc(-c2cc(C(F)(F)F)n(C)n2)c(O)c1-c1cncc(C(F)(F)F)c1 [NUCC-0201210] | + (>40 +)
40 | Oc1cc(OCc2ccc(Cl)cc2)ccc1-c1cc(C(F)(F)F)nc(-c2cc(C(F)(F)F)cc(C(F)(F)F)c2)n1 [NUCC-0200501] | + (>40 +)
41 | COc1ccc(-c2c(-c3ccc(OCc4ccc(Cl)cc4)cc3O)nn(C)c2C(F)(F)F)cc1 [NUCC-0196340] | ++ (30-40 ++)
42 | Cn1nc(C(F)(F)F)cc1-c1ccc(OCc2ccc(Cl)cc2)c(-c2cccnc2)c1O [NUCC-0196365] | + (>40 +)
43 | CC(C)(C)OC(=O)NCCOc1ccc(-c2cc(C(F)(F)F)n[nH]2)c(O)c1-c1cncc(C(F)(F)F)c1 [NUCC-0201644] | + (>40 +)
44 | COc1cccc(-c2c(C(F)(F)F)nn(C)c2-c2ccc(OCc3ccc(Cl)cc3)cc2O)c1 [NUCC-0198310] | + (>40 +)
